According to patent publication US9670482B2, “Multispecific peptides” (BICYCLE THERAPEUTICS LIMITED, priority 2009, dated 2017):
Residues, ends and D or L forms follow the SMILES beside them.

Assays:
Type in all cases: in vitro ADME
[1] = system: Chymotrypsin; experiment: Peptide conjugate digestion with Chymotrypsin; details: 37° C. for 1 hr
Procedure: (§1) Linear peptides (PK15 and CG4L1-PK15L1) were first treated with iodoacetamide prior to digestion studies. The peptides (ca 3-4 mg) were purified by HPLC (semi-prep Proteo column as described in general methods), and the HPLC fraction (ca 3 ml) was neutralised with an equal volume of 50 mM ammonium bicarbonate. […] The reaction mixture was concentrated (rotary evaporator) and re-purified by HPLC as above.
(§2) Peptides (linear and conjugates) were dissolved in water at a concentration of 1 mg/ml, giving an effective concentration of −0.5 mM stock solutions. 2 μl of peptide conjugates (˜30 μM in reactions depending on actual molecular weight) where dissolved in reaction buffer (see below) in a total reaction volume of 30 μl, followed by the protease, and samples were incubated at 37° C. for 1 hr. 10 μl aliquots were quenched into 20 μl of 10% dichloroacetic acid in MeCN/H2O (1:1) and stored at −20° C. for 30 minutes, centrifuged at 4° C. (13000 rpm) for 5 minutes and then spotted onto MALDI-TOF mass spectrometer plate for analysis.
(§3) All reactions at 37° C. Cathepsin G and kalikrein reactions were carried out in 10 mM Tris pH 7.4, 150 mM NaCl, 10 mM MgCl2, 1 mM CaCl2, 0.1% BSA, 0.01% Triton X100, 5% DMSO. Chymotrypsin reactions were carried out in 100 mM Tris pH 7.4, 10 mM CaCl2. Pronase and proteinase K reactions were carried out in 100 mM Tris pH 7.4, 0.5% SDS. Subtilisin reactions were carried out in 50 mM KH2PO4 pH 7.5. Trypsin reactions were carried out in 67 mM sodium phosphate pH 7.6. Reaction conditions with serum involve dissolving the peptide in 1×PBS (total volume 24 μl) and 6 μl of human serum added to the reaction.

[2] = target: T1, Cathepsin G (Homo sapiens, UniProt P08311); experiment: Peptide conjugate digestion with Cathepsin G; parameters: key to the marks not given beside the values; details: 37° C. for 1 hr
T1 sequence (P08311 21-244): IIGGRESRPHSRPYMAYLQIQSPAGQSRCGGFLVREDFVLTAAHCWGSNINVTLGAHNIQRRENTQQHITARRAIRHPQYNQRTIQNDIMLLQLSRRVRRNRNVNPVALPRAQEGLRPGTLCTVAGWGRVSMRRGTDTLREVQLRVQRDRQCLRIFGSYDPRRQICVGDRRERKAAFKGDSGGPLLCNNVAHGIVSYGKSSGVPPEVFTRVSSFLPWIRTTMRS
Procedure: as §1, §2, §3

[3] = Resistance to serum; details: 37° C., human serum in PBS; later times not yet tested
Procedure: as §2, §3

[4] = system: Subtilisin; experiment: Peptide conjugate digestion with Subtilisin; details: 37° C. for 1 hr
Procedure: as §1, §2, §3

[5] = system: Pronase; experiment: Peptide conjugate digestion with Pronase; parameters: key to the marks not given beside the values; details: 37° C. for 1 hr
Procedure: as §1, §2, §3

[6] = system: Trypsin; experiment: Peptide conjugate digestion with Trypsin; details: 37° C. for 1 hr
Procedure: as §1, §2, §3

[7] = target: Proteinase K (Parengyodontium album, UniProt P06873); experiment: Peptide conjugate digestion with Proteinase K; parameters: key to the marks not given beside the values; details: 37° C. for 1 hr
Sequence of Proteinase K (P06873 106-384): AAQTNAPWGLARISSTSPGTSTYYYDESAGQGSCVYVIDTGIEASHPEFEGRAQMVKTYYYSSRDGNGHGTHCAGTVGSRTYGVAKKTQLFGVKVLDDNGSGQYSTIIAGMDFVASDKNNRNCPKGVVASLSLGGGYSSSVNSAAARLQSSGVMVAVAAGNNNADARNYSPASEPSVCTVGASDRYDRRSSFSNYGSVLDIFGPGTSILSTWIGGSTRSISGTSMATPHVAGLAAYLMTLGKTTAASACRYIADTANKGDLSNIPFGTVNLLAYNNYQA
Procedure: as §1, §2, §3

[8] = target: Kalikrein (Homo sapiens, UniProt P03952); experiment: Peptide conjugate digestion with Kalikrein; parameters: digestion with Kalikrein: key to the marks not given beside the values; details: for digestion with Kalikrein: 37° C. for 1 hr
Sequence of Kalikrein (P03952 20-638): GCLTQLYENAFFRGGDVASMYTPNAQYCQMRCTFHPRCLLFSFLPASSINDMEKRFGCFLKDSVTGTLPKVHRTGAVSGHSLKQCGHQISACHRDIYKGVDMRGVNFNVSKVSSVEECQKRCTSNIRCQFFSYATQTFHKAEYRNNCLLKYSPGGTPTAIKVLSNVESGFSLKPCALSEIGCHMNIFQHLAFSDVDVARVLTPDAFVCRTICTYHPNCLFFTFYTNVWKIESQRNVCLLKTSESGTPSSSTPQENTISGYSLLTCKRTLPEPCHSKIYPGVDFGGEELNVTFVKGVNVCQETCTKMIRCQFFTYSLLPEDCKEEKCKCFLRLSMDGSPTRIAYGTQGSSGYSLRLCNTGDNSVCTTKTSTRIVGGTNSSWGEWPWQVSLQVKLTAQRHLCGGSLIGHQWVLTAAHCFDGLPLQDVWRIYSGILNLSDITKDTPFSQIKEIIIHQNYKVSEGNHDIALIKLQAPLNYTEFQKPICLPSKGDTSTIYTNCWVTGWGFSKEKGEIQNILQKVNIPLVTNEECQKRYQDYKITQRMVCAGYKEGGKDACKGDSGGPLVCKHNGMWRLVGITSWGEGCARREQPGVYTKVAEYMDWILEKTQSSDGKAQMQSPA
Procedure: as §1, §2, §3

Structure (SMILES): CC(C)C[C@@H]1NC(=O)[C@H](C)NC(=O)[C@H](CCC(=O)O)NC(=O)[C@H](CC(=O)O)NC(=O)[C@H](C)NC(=O)[C@@H]2CCCN2C(=O)[C@@H]2CSCc3cc(cc(c3)CSC[C@@H](C(=O)NCC(=O)O)NC1=O)CSC[C@H](NC(=O)[C@H](C)N)C(=O)N[C@@H](CO)C(=O)N[C@@H](CC(=O)O)C(=O)N[C@@H](CCCNC(=N)N)C(=O)N[C@@H](Cc1ccccc1)C(=O)N[C@@H](CCCNC(=N)N)C(=O)N[C@@H](CC(N)=O)C(=O)N2 [PK15L1-PK15L2 bicyclic, reference compound] (HELM PEPTIDE1{A.C.S.D.R.F.R.N.C.P.A.D.E.A.L.C.G}|CHEM1{[c1c(C[*:1])cc(C[*:3])cc1C[*:2]]}$PEPTIDE1,CHEM1,2:R3-1:R1|PEPTIDE1,CHEM1,9:R3-1:R2|PEPTIDE1,CHEM1,16:R3-1:R3$$$V2.0)
- digestion with Chymotrypsin ([1]; 0.01 μg enzyme per reaction): +++
- digestion with Chymotrypsin ([1]; 0.1 μg enzyme per reaction): +++
- digestion with Chymotrypsin ([1]; 1 μg enzyme per reaction): +++
- digestion with Cathepsin G ([2]; 0.01 μg enzyme per reaction): +++
- digestion with Cathepsin G ([2]; 0.1 μg enzyme per reaction): +++
- time for which proteolysis in serum is resisted [3]: at least 48 hours
- digestion with Subtilisin ([4]; 0.009 μg enzyme per reaction): +++
- digestion with Subtilisin ([4]; 9 μg enzyme per reaction): −
- digestion with Pronase ([5]; 0.01 μg enzyme per reaction): +++
- digestion with Pronase ([5]; 0.1 μg enzyme per reaction): +++
- digestion with Trypsin ([6]; 0.01 μg enzyme per reaction): +++
- digestion with Trypsin ([6]; 10 μg enzyme per reaction): −
- digestion with Proteinase K ([7]; 0.01 μg enzyme per reaction): +++
- digestion with Proteinase K ([7]; 0.1 μg enzyme per reaction): +++
- digestion with Proteinase K ([7]; 1 μg enzyme per reaction): +++
- digestion with Kalikrein ([8]; 0.01 μg enzyme per reaction): +++
- digestion with Kalikrein ([8]; 0.1 μg enzyme per reaction): +++
- digestion with Kalikrein ([8]; 1 μg enzyme per reaction): +++
- factor by which the TBMB conjugate is more resistant than the linear peptide to attack by kallikrein ([8]; by comparing different concentrations of enzyme): about 100 fold
